# From article PMC7179226, “Sulfonamide Inhibition Studies of the β-Class Carbonic Anhydrase CAS3 from the Filamentous Ascomycete Sordaria macrospora” (Molecules, 2020)
# Target: T1, CAS3 (Sordaria macrospora, UniProt F7VU04)
# T1 construct: gene SMAC_03179; primers imply N-terminus (M)MPVTNEE and C-terminus KTVRVV-LE-His6
# Test: stopped-flow CO2 hydration inhibition assay
# Format: biochemical
# Conditions: not given
row,Ki [nM],Compound
1,191 ± 12,O=C1NS(=O)(=O)c2ccccc21 [SAC]
2,669 ± 29,Cc1ccc(-c2cc(C(F)(F)F)nn2-c2ccc(S(N)(=O)=O)cc2)cc1 [CLX]

row,Compound,Ki [nM]
1,NS(=O)(=O)c1cc2c(cc1Cl)NCNS2(=O)=O [HCT],545 ± 41

# Same assay, conditions: read-out: KI* (nM) / CAS3 ^c / β
row,Compound,Ki [nM]
1,"Nc1nnc(S(N)(=O)=O)s1 [compound 13, deacetylated precursor of acetazolamide]",88 ± 2.9
2,"Cn1nc(S(N)(=O)=O)sc1=N [compound 14, deacetylated precursor of methazolamide]",94 ± 4.1
3,NS(=O)(=O)Cc1noc2ccccc12 [ZNS],710 ± 40
4,"NS(=O)(=O)c1cc(Cl)c(Cl)c(S(N)(=O)=O)c1 [DCP, dichlorophnamide]",73 ± 3
5,"NS(=O)(=O)c1nnc(NS(=O)(=O)c2ccccc2)s1 [BZA, benzolamide]",54 ± 0.9
6,"CCN[C@H]1CN(CCCOC)S(=O)(=O)c2sc(S(N)(=O)=O)cc21 [BRZ, brinzolamide]",61 ± 1.4
7,CCN1CCCC1CNC(=O)c1cc(S(N)(=O)=O)ccc1OC (centres unmarked) [SLP],493 ± 27
8,CC1(C)O[C@@H]2[C@@H](CO[C@@]3(COS(N)(=O)=O)OC(C)(C)O[C@@H]23)O1 [TPM],363 ± 23
9,"CC(=O)N=c1sc(S(N)(=O)=O)nn1C [MZA, methazolamide]",91 ± 6.2

# Other lines, results leading:
row,Ki [nM],Compound
1,831 ± 38,Cc1onc(-c2ccccc2)c1-c1ccc(S(N)(=O)=O)cc1 [VLX]
2,94 ± 4.6,NS(=O)(=O)c1ccc(S(=O)(=O)Nc2cccc3c(Cl)c[nH]c23)cc1 [IND]
3,82 ± 3.7,"NS(=O)(=O)c1ccc(CO)cc1 [compound 16, 4-hydroxymethyl-benzenesulfonamide]"
4,4840 ± 257,"NS(=O)(=O)c1ccc(N2CCCCS2(=O)=O)cc1 [SLT, sulthiame]"

# Target: T2, CAS3 (Sordaria macrospora, UniProt F7VU04)
# T2 construct: gene SMAC_03179; primers imply N-terminus (M)MPVTNEE and C-terminus KTVRVV-LE-His6
# T2 sequence (F7VU04 1-174): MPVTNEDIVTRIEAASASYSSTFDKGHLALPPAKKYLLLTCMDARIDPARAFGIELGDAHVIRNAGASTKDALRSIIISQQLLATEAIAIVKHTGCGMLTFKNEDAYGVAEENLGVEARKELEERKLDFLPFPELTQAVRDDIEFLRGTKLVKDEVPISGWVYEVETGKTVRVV
# Test: biochemical
# Conditions: read-out: KI* (nM) / CAS3 ^c / β
# Procedure: An Applied Photophysics stopped-flow instrument was used for assaying the CA catalyzed CO2 hydration activity. […] The initial rates of the CA-catalyzed CO2 hydration were followed for a period of 10–100 s for each assay. […] For each measurement, six traces of the initial 5%–10% of the reaction were used for determining the initial velocity. Then, 10-fold decreasing dilution of inhibitor solutions, ranging from 1 nM and 100 µM were employed for determining the inhibition constants. Uncatalyzed rates were determined in the same manner and subtracted from total observed rates. Stock solutions of inhibitor (0.1 mM) were prepared in distilled deionized water, and dilutions up to 1 nM were done thereafter with the assay buffer. Inhibitor and enzyme solutions were preincubated together for 15 min at room temperature before to assay for allowing for the formation of E–I complexes. The inhibition constants were obtained by non-linear least-squares methods using the Cheng–Prusoff equation, and they represent the mean from at least three different determinations. The human isoforms hCA I, II were assayed in the same conditions as above except that the working pH was 7.4 HEPES buffer with phenol red as an indicator [21, 22].
row,Compound,Ki [nM]
1,Nc1cc(Cl)c(S(N)(=O)=O)cc1S(N)(=O)=O [compound 12],90 ± 5.7
2,NCCc1ccc(S(N)(=O)=O)cc1 [compound 6],441 ± 14
3,NS(=O)(=O)c1cc(Cl)cc(Cl)c1O [compound 10],350 ± 13
4,Nc1cc(C(F)(F)F)c(S(N)(=O)=O)cc1S(N)(=O)=O [compound 11],235 ± 16

# More lines, now with the values ahead:
row,Ki [nM],Compound
1,91 ± 4.4,Nc1nccc(Nc2ccc(S(N)(=O)=O)cc2)n1 [compound 19]
2,95 ± 3.9,NS(=O)(=O)c1ccc(CCNS(=O)(=O)c2ccc([N+](=O)[O-])cc2CO)cc1 [compound 21]
3,712 ± 28,Nc1ccc(S(N)(=O)=O)cc1Br [compound 9]
4,85 ± 2.7,Nc1ccc(S(=O)(=O)Nc2nnc(S(N)(=O)=O)s2)cc1 [compound 20]
5,83 ± 6,NS(=O)(=O)c1cccc(S(N)(=O)=O)c1 [compound 3]
6,89 ± 3.4,Nc1ccc(S(=O)(=O)NCc2ccc(S(N)(=O)=O)cc2)cc1 [compound 23]
7,85 ± 2.6,Nc1ccc(S(=O)(=O)Nc2ccc(S(N)(=O)=O)cc2)cc1 [compound 22]
8,2080 ± 61,Nc1ccc(S(N)(=O)=O)cc1Cl [compound 8]
9,585 ± 23,Nc1ccc(S(N)(=O)=O)cc1F [compound 7]
10,726 ± 30,NCc1ccc(S(N)(=O)=O)cc1 [compound 5]
11,605 ± 23,NS(=O)(=O)c1ccc(O)cc1 [compound 15]
12,226 ± 13,NS(=O)(=O)c1ccc(C(=O)O)cc1 [compound 18]
13,84 ± 1.5,Nc1ccc(S(=O)(=O)NCCc2ccc(S(N)(=O)=O)cc2)cc1 [compound 24]
14,507 ± 26,NS(=O)(=O)c1ccc(CCO)cc1 [compound 17]
15,560 ± 21,Cc1ccc(S(N)(=O)=O)cc1 [compound 4]
